Laboratory results published in PMC6222789, “CF3-Substituted Mollugin 2-(4-Morpholinyl)-ethyl ester as a Potential Anti-inflammatory Agent with Improved Aqueous Solubility and Metabolic Stability” (Molecules : A Journal of Synthetic Chemistry and Natural …, 2018).

Experiments:
[1] = Plasma stability, rat plasma; assay type: in vitro ADME; settings: 2 h, 37 °C, 1 μM
Procedure: (§1) The plasma stability assay was performed by incubation of human or rat plasma with a test compound in a final concentration of 1 μM for 120 min at 37 °C. The incubation was terminated by addition of 40 μL of ice-cold acetonitrile and vortexing for 5 min. The precipitated proteins were removed by centrifugation at 14,000× g for 5 min at 4 °C. Aliquots of the supernatant were injected onto a Shimadzu Nexera XR LC system. Percentages of the parent compound remaining were calculated by comparing peak areas using the Xcalibur software (version 1.6.1, Waltham, MA, USA).

CYP2D6 = molecular target: T1, CYP2D6 (Homo sapiens, UniProt P10635); experiment: CYP inhibition assay, CYP2D6; assay type: in vitro ADME; settings: for CYP Inhibition (% of Control) 2D6: 10 μM, CYP activity in presence of inhibitor as % of control, human liver microsomes
T1 construct: from tissue; host or cells: human liver microsomes
Procedure: (§2) All incubations were performed in duplicate, and the mean values were used for analysis. The assays of phenacetin O-deethylase, tolbutamide 4-hydroxylase, S-mephenytoin 4-hydroxylase, dextromethorphan O-demethylase and midazolam 1′-hydroxylase activities were determined as probe activities for CYP1A2, CYP2C9, CYP2C19, CYP2D6 and CYP3A, respectively, using cocktail incubation and tandem mass spectrometry. Briefly, incubation reaction was performed with 0.25 mg/mL human liver microsomes in a final incubation volume of 100 μL. The incubation medium contained 100 mM phosphate buffer (pH 7.4) with probe substrates. The incubation mixture containing various inhibitors (10 μM) was pre-incubated for 5 min. After pre-incubation, an NADPH regenerating system was added. After incubation at 37 °C for 15 min, the reaction was stopped by placing the incubation tubes on ice and adding 40 μL of ice-cold acetonitrile. The incubation mixtures were then centrifuged at 10,000× g for 5 min at 4 °C. Aliquots of the supernatant were injected onto an LC-MS/MS system. The CYP-mediated activities in the presence of inhibitors were expressed as percentages of the corresponding control values.

[2] = Metabolic stability, human liver microsomes; assay type: in vitro ADME; settings: 1 μM
Procedure: (§3) Pooled human liver microsomes (150 donor) and dog, rat, mouse liver microsomes were obtained from BD Gentest Co. (Woburn, MA, USA). NADPH regeneration system was obtained from Promega. S-Mephenytoin, 4-hydroxymephenytoin, and 1’-hydroxymidazolam were purchased from Ultrafine Chemical Co. (Manchester, UK). All other chemicals and solvents were of the highest grade available. The metabolic stability assay was performed by incubation of human or selected animal liver microsomes (most often dog, rat and mouse), at 37 °C with a test compound at a final concentration of 1 μM, in the presence of 0.5 mg/mL microsomal protein and NADPH regeneration system, in a total volume of 100 μL of 100 mM phosphate buffer, pH 7.4. The incubation was started by the addition of NADPH regeneration system and terminated with 40 μL of ice-cold acetonitrile at 0 and 30 min. Precipitated proteins were removed by centrifugation at 10,000× g for 5 min at 4 °C. Aliquots of the supernatant were injected onto an LC-MS/MS system. Incubations terminated prior to the addition of NADPH regeneration system (time point 0 min) were used as standards, defined as 100%. Percent of the parent compound remaining was calculated by comparing peak area.

[3] = Plasma stability, human plasma; assay type: in vitro ADME; settings: 37 °C, 1 μM
Procedure: as §1

CYP2C19 = molecular target: T2, CYP2C19 (Homo sapiens, UniProt P33261); experiment: CYP inhibition assay, CYP2C19; assay type: in vitro ADME; settings: for CYP Inhibition (% of Control) 2C19: 10 μM, CYP activity in presence of inhibitor as % of control, human liver microsomes
T2 construct: from tissue; host or cells: human liver microsomes
Procedure: as §2

[4] = system: IL-6-induced adhesion of U937 monocytic cells to HT-29 cells; experiment: IL-6-induced colonic epithelial cell adhesion assay; assay type: cell-based, human; settings: Homo sapiens, Epithelial cell, 10 uM; U937 adhesion to HT-29 cells, IL-6-induced
Procedure: (§4) Synthesized mollugin derivatives were subjected to the colonic epithelial cell adhesion assay, which mimics the initial stage of colon inflammation. The inhibition of TNF-α-induced or IL-6-induced adhesion of U937 monocytic cells to HT-29 cells in 10 μM solution of synthesized molecules was measured, and the results are summarized in Table 1 and Table 2. Mesalazine (2), a commercially available medication for the treatment of IBD, and mollugin were chosen as assay positive controls.
(§5) HT-29 human colonic epithelial cells and U937 human pre-monocytic cells were grown in RPMI 1640 medium supplemented with 10% FBS, 100 IU/mL penicillin, and 100 µg/mL streptomycin in a humidified incubator under 5% CO2/95% air.
(§6) U937 monocytic cell adhesion to colonic epithelial cells was evaluated using human U937 pre-monocytic cells, which were prelabeled with 2′,7′-bis(2-carboxyethyl)-5(6)-carboxyfluorescein acetoxymethyl ester (BCECF/AM, 10 μg/mL) for 1 h at 37 °C. HT-29 cells cultured in 24-well plates were pretreated with test compound, 5-ASA, or tofacitinib for 1 h prior to incubation with TNF-α (10 ng/mL) and IL-6 (5 ng/mL) for an additional 3 h. Cells were then co-incubated with BCECF/AM-prelabeled U937 cells (1 × 10^6 cells/well) for 30 min at 37 °C. Non-adhering U937 cells were removed, and the HT-29 cells and adherent U937 cells were washed twice with PBS. Images were captured and processed with a Nikon ECLIPSE TE2000-U microscope and NIS-Elements F software (Nikon, Tokyo, Japan). For quantitative analysis, other sets of cells were lysed in 0.1% Triton X-100 in Tris (0.1 M), and the fluorescence was measured using a fluorescence-detecting microplate reader (Promega , Madison, WI, USA) at […]. Experiments were performed in triplicate and repeated at least three times independently.

[5] = Metabolic stability, mouse liver microsomes; assay type: in vitro ADME; settings: 30 min, 1 μM
Procedure: as §3

[6] = system: TNF-α-induced adhesion of U937 monocytic cells to HT-29 cells; experiment: TNF-α-induced colonic epithelial cell adhesion assay; assay type: cell-based, human; settings: Homo sapiens, Epithelial cell, 10 uM; U937 adhesion to HT-29 cells, TNF-α-induced
Procedure: as §4, §5, §6

CYP3A4 = experiment: CYP inhibition assay, CYP3A4; assay type: in vitro ADME, human; settings: for CYP Inhibition (% of Control) 3A4: 10 μM, CYP activity in presence of inhibitor as % of control, human liver microsomes
Procedure: as §2

[7] = Metabolic stability, rat liver microsomes; assay type: in vitro ADME; settings: 30 min, 1 μM
Procedure: as §3

CYP2C9 = molecular target: T3, CYP2C9 (Homo sapiens, UniProt P11712); experiment: CYP inhibition assay, CYP2C9; assay type: in vitro ADME; settings: for CYP Inhibition (% of Control) 2C9: 10 μM, CYP activity in presence of inhibitor as % of control, human liver microsomes
T3 construct: from tissue; host or cells: human liver microsomes
Procedure: as §2

cell viability = experiment: MTT cell viability assay; assay type: cell-based; settings: 10 μM concentration

T2 sequence (P33261 whole entry): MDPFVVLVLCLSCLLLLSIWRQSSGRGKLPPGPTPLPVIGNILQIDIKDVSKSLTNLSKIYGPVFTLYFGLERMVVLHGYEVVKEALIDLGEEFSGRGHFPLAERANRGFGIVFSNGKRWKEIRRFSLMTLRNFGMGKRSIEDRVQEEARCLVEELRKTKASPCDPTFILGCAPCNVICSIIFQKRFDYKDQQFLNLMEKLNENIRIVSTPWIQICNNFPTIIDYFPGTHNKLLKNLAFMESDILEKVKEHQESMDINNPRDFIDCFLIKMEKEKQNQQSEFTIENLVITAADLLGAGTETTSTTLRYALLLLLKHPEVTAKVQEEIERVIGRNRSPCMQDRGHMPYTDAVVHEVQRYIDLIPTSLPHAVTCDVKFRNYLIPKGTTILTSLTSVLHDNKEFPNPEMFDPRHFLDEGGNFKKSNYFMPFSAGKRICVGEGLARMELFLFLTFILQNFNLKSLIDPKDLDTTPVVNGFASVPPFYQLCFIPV
T3 sequence (P11712 whole entry): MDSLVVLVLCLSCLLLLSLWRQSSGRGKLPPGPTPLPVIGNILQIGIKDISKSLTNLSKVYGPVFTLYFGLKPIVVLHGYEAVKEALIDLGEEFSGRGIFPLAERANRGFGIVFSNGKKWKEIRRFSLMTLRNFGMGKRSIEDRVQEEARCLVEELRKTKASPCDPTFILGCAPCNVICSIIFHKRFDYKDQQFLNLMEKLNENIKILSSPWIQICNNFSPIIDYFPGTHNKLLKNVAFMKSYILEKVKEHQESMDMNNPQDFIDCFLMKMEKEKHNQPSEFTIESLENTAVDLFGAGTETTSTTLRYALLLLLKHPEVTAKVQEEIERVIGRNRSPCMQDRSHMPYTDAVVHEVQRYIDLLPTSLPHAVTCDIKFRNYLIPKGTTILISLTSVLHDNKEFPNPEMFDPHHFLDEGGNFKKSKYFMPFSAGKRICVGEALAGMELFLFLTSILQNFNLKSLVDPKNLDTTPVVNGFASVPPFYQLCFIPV
T1 sequence (P10635 whole entry): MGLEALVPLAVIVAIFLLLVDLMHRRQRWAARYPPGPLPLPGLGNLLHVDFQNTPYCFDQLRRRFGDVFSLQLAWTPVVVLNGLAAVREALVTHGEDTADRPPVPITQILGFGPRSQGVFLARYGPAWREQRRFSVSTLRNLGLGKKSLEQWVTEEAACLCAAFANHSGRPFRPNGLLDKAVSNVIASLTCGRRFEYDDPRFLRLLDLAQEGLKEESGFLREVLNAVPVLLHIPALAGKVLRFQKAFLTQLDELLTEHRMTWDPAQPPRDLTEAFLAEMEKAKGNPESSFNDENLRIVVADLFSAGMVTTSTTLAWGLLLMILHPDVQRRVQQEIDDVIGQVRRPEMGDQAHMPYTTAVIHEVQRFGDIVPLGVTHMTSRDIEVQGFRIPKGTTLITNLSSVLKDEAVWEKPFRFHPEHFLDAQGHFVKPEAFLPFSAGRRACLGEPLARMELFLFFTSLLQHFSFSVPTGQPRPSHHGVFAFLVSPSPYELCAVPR

Plasma Stability (% Remain, 2 h) Rat [1] [% Remain]	CYP Inhibition (% of Control) 2D6 (CYP2D6)	Metabolic Stability (% Remain, 30 min) Human [2] [% Remain]	Plasma Stability (% Remain, 2 h) Human [3] [% Remain]	CYP Inhibition (% of Control) 2C19 (CYP2C19)	Metabolic Stability (% Remain, 30 min) Mouse [5] [% Remain]	CYP Inhibition (% of Control) 3A4 (CYP3A4)	Metabolic Stability (% Remain, 30 min) Rat [7] [% Remain]	CYP Inhibition (% of Control) 2C9 (CYP2C9)	inhibition at 15 min, 10 μM (CYP2D6; human, liver microsomes, pH 7.4, probe dextromethorphan (O-demethylation), at 10 μM drug concentration, read-out: % inhibition of CYP 2D6) [%]	inhibition at 15 min, 10 μM (CYP2C19; human, liver microsomes, pH 7.4, probe S-mephenytoin (4-hydroxylation), at 10 μM drug concentration, read-out: % inhibition of CYP 2C19) [%]	inhibition at 15 min, 10 μM (CYP3A4; human, liver microsomes, pH 7.4, probe midazolam (1′-hydroxylation), at 10 μM drug concentration, read-out: % inhibition of CYP 3A4) [%]	inhibition at 15 min, 10 μM (CYP2C9; human, liver microsomes, pH 7.4, probe tolbutamide (4-hydroxylation), at 10 μM drug concentration, read-out: % inhibition of CYP 2C9) [%]	SMILES	inhibition at 10 µM [4] [%]	inhibition at 10 µM [6] [%]	effect on cell viability (MTT) (cell viability)
97	75 % of Control	83	97	68 % of Control	10	91 % of Control	20	99 % of Control	–	–	–	–	CC1(C)C=Cc2c(C(=O)OCCN3CCOCC3)c(O)c3ccccc3c2O1 [6d, 2-Morpholinoethyl 6-hydroxy-2,2-dimethyl-2H-benzo[h]chromene-5-carboxylate]	26.5 ± 5	46.3 ± 6.2	neither 6d nor 15c affects the cell viability
51	92 % of Control	84	100	93 % of Control	45	90 % of Control	52	97 % of Control	< 50	< 50	< 50	< 50	CC1(C)C=Cc2c(C(=O)OCCN3CCOCC3)c(O)c3cc(C(F)(F)F)ccc3c2O1 [15c, 2-Morpholinoethyl 6-hydroxy-2,2-dimethyl-8-(trifluoromethyl)-2H-benzo[h]chromene-5-carboxylate]	50.3 ± 5.7	46 ± 7.6	neither 6d nor 15c affects the cell viability
